Assay results taken from patent US20070117770A1, “Human ribosomal DNA (rDNA) and ribosomal RNA (rRNA) nucleic acids and uses thereof” (Cylene Pharmaceuticals, Inc., priority 2005, published 2007).

Experiments:
nucleolin/6534NT = target: T1, nucleolin/6534NT (Homo sapiens, UniProt P19338); test: EMSA, interference with nucleolin/nucleic acid ligand interaction; format: binding; details: ligand 6534NT, read-out: IC50, concentration of Compound A-1 required to dissociate half of the complexed nucleic acid ligand and nucleolin protein
T1 construct: without the N-terminal acidic stretches domain
Method: (§1) The following assays assessed effects of compounds on interactions between nucleolin and nucleic acid ligands capable of forming quadruplex (QP) and hairpin (HP) secondary structures. Nucleic acid ligands tested were a cMyc QP DNA having nucleotide sequence 5′-[…]-3′ (SEQ ID NO: 176) and a HP pre-rRNA region to which nucleolin binds, having the sequence 5′-[…]-3′ (SEQ ID NO: 177). In the assays, recombinant nucleolin (˜250 nM), which was fused to maltose binding protein and had the sequence under accession number NM_005381 without the N-terminal acidic stretches domain, was incubated with each of the two ^32P-labeled nucleic acid ligands (10 or 250 nM). Nucleolin and the nucleic acid ligand were incubated in the presence or absence of a test compound of Formula A-1, B-1, C-6 or C-7 in an incubation buffer (12.5 mM Tris, pH 7.6, 60 mM KCl, 1 mM MgCl2, 0.1 mM EDTA, 1 mM DTT, 5% glycerol, 0.1 mg/ml BSA) for 30 minutes at room temperature. Structures for A-1 and B-1 are shown above and structures for C-6 and C-7 are shown hereafter: [drawing 17] The resulting complexes were separated on a 6% DNA retardation gel using 0.5× TBE with 20 mM KCl as a running buffer (i.e., electrophoresis mobility shift assay (EMSA)).
(§2) The assay also was conducted using nucleic acid ligands derived from human ribosomal DNA. Sequences of these nucleic acids are shown in the preceding example. […] A “+” represents the weakest nucleolin affinity and least interference by compound A-1 and a “++++” represents the strongest nucleolin affinity and greatest interference by compound A-1.
(§3) The assay also was conducted in a filter-binding format. […] The protein-quadruplex mixtures were incubated for 30 min at ambient temperature and filtered through mixed cellulose ester membrane filters (Millipore) with gentle suction. The filters were washed twice with […] of binding buffer, dried and OptiPhase ‘SuperMix’ scintillation cocktail (Perkin Elmer) was added to the wells. Radioactivity was assayed with MicroBeta scintillation counter (Perkin Elmer). Binding curves were constructed and apparent Kd's and Bmax's for the complexes were calculated using the GraphPad Prizm software program (GraphPad Software). In the following table, the nucleic acid ligand is designated in the first column using the nomenclature described herein; the second column provides the nucleotide sequence of the nucleic acid ligand; the third column is the conformation of the ligand as determined by circular dichroism (M is mixed, P is parallel, A is antiparallel, C is complex, SS is single-stranded and ND is not determined); the fourth column is the dissociation constant determined by the filter binding assay of nucleolin protein and the nucleic acid ligand; the fifth column is a Bmax constant determined by the filter binding assay, which is the percent of active nucleic acid ligand in each assay; and the sixth column presents the concentration of Compound A-1 required to dissociate half of the complexed nucleic acid ligand and nucleolin protein, as determined by the EMSA assay described above.

nucleolin/8511NT = target: T2, nucleolin/8511NT (Homo sapiens, UniProt P19338); test: as above; format: binding; details: ligand 8511NT, read-out: IC50, concentration of Compound A-1 required to dissociate half of the complexed nucleic acid ligand and nucleolin protein
T2 construct: without the N-terminal acidic stretches domain
Method: as §1, §2, §3

nucleolin/6374NT = target: T3, nucleolin/6374NT (Homo sapiens, UniProt P19338); test: as above; format: binding; details: ligand 6374NT, read-out: IC50, concentration of Compound A-1 required to dissociate half of the complexed nucleic acid ligand and nucleolin protein
T3 construct: without the N-terminal acidic stretches domain
Method: as §1, §2, §3

nucleolin/6960NT = target: T4, nucleolin/6960NT (Homo sapiens, UniProt P19338); test: as above; format: binding; details: ligand 6960NT, read-out: IC50, concentration of Compound A-1 required to dissociate half of the complexed nucleic acid ligand and nucleolin protein
T4 construct: without the N-terminal acidic stretches domain
Method: as §1, §2, §3

nucleolin/7253NT = target: T5, nucleolin/7253NT (Homo sapiens, UniProt P19338); test: as above; format: binding; details: ligand 7253NT, read-out: IC50, concentration of Compound A-1 required to dissociate half of the complexed nucleic acid ligand and nucleolin protein
T5 construct: without the N-terminal acidic stretches domain
Method: as §1, §2, §3

nucleolin/2957NT = target: T6, nucleolin/2957NT (Homo sapiens, UniProt P19338); test: as above; format: binding; details: ligand 2957NT, read-out: IC50, concentration of Compound A-1 required to dissociate half of the complexed nucleic acid ligand and nucleolin protein
T6 construct: without the N-terminal acidic stretches domain
Method: as §1, §2, §3

nucleolin/8762NT = target: T7, nucleolin/8762NT (Homo sapiens, UniProt P19338); test: as above; format: binding; details: ligand 8762NT, read-out: IC50, concentration of Compound A-1 required to dissociate half of the complexed nucleic acid ligand and nucleolin protein
T7 construct: without the N-terminal acidic stretches domain
Method: as §1, §2, §3

nucleolin/5701NT = target: T8, nucleolin/5701NT (Homo sapiens, UniProt P19338); test: as above; format: binding; details: ligand 5701NT, read-out: IC50, concentration of Compound A-1 required to dissociate half of the complexed nucleic acid ligand and nucleolin protein
T8 construct: without the N-terminal acidic stretches domain
Method: as §1, §2, §3

nucleolin in A549 cells = test: Cell nucleolin localization (immunofluorescence); format: cell-based; details: 10 uM, two hours
Method: An assay was conducted to determine the effect of ribosomal nucleic acid interacting compounds on cell nucleolin location. In these studies, A549 cells were plated in borosilicate chamber slides. The cells were treated with 10 uM compound A-1 the next day for two hours, washed with phosphate buffered saline, fixed for 10 minutes in 4% paraformaldehyde, permeabilized for 5 minutes in a 1:1 ethanol:acetone mix, incubated with a 1:100 dilution of an anti-nucleolin monoclonal antibody (catalog no. RDI-NUCLEOLabm; Research Diagnostics, Inc.) in 5% donkey serum, followed by incubation with a 1:100 diluted TRITC-labeled secondary anti-mouse antibody and observed under a fluorescence microscope (e.g., Olympus) in the TRITC channel at 600× magnification. […] Accordingly, nucleolin was redistributed from the nucleolus to the nucleoplasm in cells treated with a compound tested in the assay.

nucleolin/6183NT = target: T9, nucleolin/6183NT (Homo sapiens, UniProt P19338); test: EMSA, interference with nucleolin/nucleic acid ligand interaction; format: binding; parameters: key to Activity of Compound A-1 (relative interference), ligand 6183NT: +: least interference by compound A-1; ++++: greatest interference by compound A-1
T9 construct: without the N-terminal acidic stretches domain
Method: as §1, with “The resulting complexes were separated on a 6% DNA retardation gel using 0.5× TBE with 20 mM KCl as a running buffer (i.e., electrophoresis mobility shift assay (EMSA)).” left out
(§4) The assay also was conducted in a filter-binding format. […] Radioactivity was assayed with MicroBeta scintillation counter (Perkin Elmer). Binding curves were constructed and apparent Kd's and Bmax's for the complexes were calculated using the GraphPad Prizm software program (GraphPad Software). […]

nucleolin/8749NT = target: T10, nucleolin/8749NT (Homo sapiens, UniProt P19338); test: as above; format: binding; parameters: key to Activity of Compound A-1 (relative interference), ligand 8749NT: +: least interference by compound A-1; ++++: greatest interference by compound A-1
T10 construct: without the N-terminal acidic stretches domain
Method: as §1, with “The resulting complexes were separated on a 6% DNA retardation gel using 0.5× TBE with 20 mM KCl as a running buffer (i.e., electrophoresis mobility shift assay (EMSA)).” left out
as §4

nucleolin/1196NT = target: T11, nucleolin/1196NT (Homo sapiens, UniProt P19338); test: as above; format: binding; parameters: key to Activity of Compound A-1 (relative interference), ligand 1196NT: +: least interference by compound A-1; ++++: greatest interference by compound A-1
T11 construct: without the N-terminal acidic stretches domain
Method: as §1, with “The resulting complexes were separated on a 6% DNA retardation gel using 0.5× TBE with 20 mM KCl as a running buffer (i.e., electrophoresis mobility shift assay (EMSA)).” left out
as §4

T10 sequence (P19338 284-710 limits assumed): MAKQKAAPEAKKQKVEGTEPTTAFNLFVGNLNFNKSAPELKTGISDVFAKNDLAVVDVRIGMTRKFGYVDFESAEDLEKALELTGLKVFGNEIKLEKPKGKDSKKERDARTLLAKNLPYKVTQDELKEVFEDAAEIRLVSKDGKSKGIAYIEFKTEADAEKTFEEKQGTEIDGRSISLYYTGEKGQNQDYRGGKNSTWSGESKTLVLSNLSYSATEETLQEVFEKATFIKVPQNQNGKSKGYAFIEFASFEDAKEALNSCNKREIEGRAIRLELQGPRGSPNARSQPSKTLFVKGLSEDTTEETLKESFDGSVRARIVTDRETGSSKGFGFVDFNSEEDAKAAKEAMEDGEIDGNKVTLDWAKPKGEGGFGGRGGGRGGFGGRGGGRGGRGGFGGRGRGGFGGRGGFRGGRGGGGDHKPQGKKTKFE
T9 sequence (P19338 284-710 limits assumed): as above
T11 sequence (P19338 284-710 limits assumed): as above
T6 sequence (P19338 284-710 limits assumed): as above
T1 sequence (P19338 284-710 limits assumed): as above
T2 sequence (P19338 284-710 limits assumed): as above
T4 sequence (P19338 284-710 limits assumed): as above
T8 sequence (P19338 284-710 limits assumed): as above
T3 sequence (P19338 284-710 limits assumed): as above
T5 sequence (P19338 284-710 limits assumed): as above
T7 sequence (P19338 284-710 limits assumed): as above

- IC50 (nucleolin/6534NT): 10 µM
- IC50 (nucleolin/8511NT): 10 µM
- IC50 (nucleolin/6374NT): 3 µM
- IC50 (nucleolin/6960NT): 3 µM
- IC50 (nucleolin/7253NT): 10 µM
- IC50 (nucleolin/2957NT): 1000 nM
- IC50 (nucleolin/8762NT): 10 µM
- IC50 (nucleolin/5701NT): 3 µM
- Activity of Compound A-1 (relative interference), ligand 6183NT (nucleolin/6183NT): +
- IC50 (nucleolin/6183NT; ligand 6183NT, read-out: IC50, concentration of Compound A-1 required to dissociate half of the complexed nucleic acid ligand and nucleolin protein): 3 µM
- Activity of Compound A-1 (relative interference), ligand 8749NT (nucleolin/8749NT): +
- IC50 (nucleolin/8749NT; ligand 8749NT, read-out: IC50, concentration of Compound A-1 required to dissociate half of the complexed nucleic acid ligand and nucleolin protein): 10 µM
- Activity of Compound A-1 (relative interference), ligand 1196NT (nucleolin/1196NT): +
- IC50 (nucleolin/1196NT; ligand 1196NT, read-out: IC50, concentration of Compound A-1 required to dissociate half of the complexed nucleic acid ligand and nucleolin protein): 3 µM
SMILES: CN1CCCC1CCNC(=O)c1cn2c3c(c(N4CCC(c5cnccn5)C4)c(F)cc3c1=O)Oc1cc3ccccc3cc1-2 (stereo not drawn) [Compound A-1]
- nucleolin localization in treated cells (nucleolin in A549 cells): nucleolin was redistributed to the nucleoplasm
